“Also recorded” adds a separate entry of the source.
How the values were obtained:
[1] = system: panic-prone (1-AG treated) rats; assay: Sodium lactate (NaLac) challenge in panic-prone rats: radio-telemetry of locomotor and cardiovascular (HR, MAP) responses; assay type: in vivo, rat
Protocol: Telemetry probes (Data Science International, St. Paul Minn.) were surgically implanted into the abdomen of anaesthetize rats to measure locomotor responses. Cardiovascular responses were measured by a femoral arterial line connected to the telemetric probe which contained a pressure transducer (Data Science International, St. Paul Minn.).
The minipump was then sutured into place subcutaneously at the nape of the neck. The concentration of the solutions was such that 3.5 nmol/[…] per hour of 1-AG or d-AG was infused continuously into the DMH/PeF region for the remainder of the given experiment. In the case of the siRNA experiments specialized T-cannulae were implanted permitting access to a removable 28 g injector to direct siRNA injections to the same location as the 1-AG infusions. Additionally these rats had guide cannulae directed to the opposite DMH/PeF for bilateral infusion of siRNA.
Rats received intravenous (i.v.) infusions (10 ml over 15 min of either 0.5M NaLac or 0.9% isotonic saline (when applicable)) using a syringe pump at least five days following the initiation of 1-AG or d-AG infusions. Once a stable baseline was achieved, i.v. infusions began and cardiovascular and activity data were recorded for 15 min (similar to clinical NaLac infusions).
Cardiovascular responses (i.e., MAP and HR) were measured by a femoral arterial line connected to a telemetric probe which contained a pressure transducer (Cat. no. C50-PXT, Data Science International (DSI) St. Paul Minn.). […] MAP and HR were recorded continuously in freely moving conscious rats and are expressed as a 20 min time course. The data reported are changes in HR and MAP from the average of the baseline (t−5 to t−1) from each rat. […]
In experiments 4-6, rats were made panic vulnerable with 1-AG. 5 days after 1-AG onset, in a counterbalanced design, rats received intraperitoneal (i.p.) injections of treatment drug or vehicle 30 min prior to i.v. infusions. […] In experiment 5, baseline in an open field (OF) behavior test of anxiety was assessed (n=8) prior to 1-AG infusions. […] Immediately following the NaLac challenge, rats were placed in the OF test. […] In experiment 6,1-AG treated rats received an injection of an alternative ORX1 receptor antagonist (30 mg/kg SB408124 (N-(6,8-Difluoro-2-methyl-4-quinolinyl)-N′-(4-(dimethylamino)phenyl)urea), Tocris, in 0.2 ml/100 g volume DMSO, n=4) or vehicle (0.2 ml/100 g volume DMSO, n=6) 30 min prior to NaLac. In experiment 7, control rats (no 1-AG or NaLac treatment) were assessed in a SI test.
Adult male Sprague-Dawley rats were anesthetized and surgically implanted with telemetrical probes to measure cardiovascular activity prior to and during lactate infusions. After a 3 day recovery, rats were anaesthetized and had osmotic minipumps (previously filled with 1-AG) stereotaxically implanted unilaterally into the DMH. […] 1960, Tocris, in 0.2 ml/100 g volume DMSO, n=12], alprazolam (3 mg/kg, Sigma, in 0.2 ml/100 g volume DMSO, n=6) or vehicle (0.2 ml/100 g volume DMSO, n=11) 30 min prior lactate challenge.

[2] = system: panic-prone (1-AG treated) rats; assay: Sodium lactate (NaLac) challenge in panic-prone rats: open field test; assay type: in vivo, rat; conditions: 30 mg/kg i.p. 30 min prior to NaLac, experiment 5
Protocol: (§1) The open-field arena covered an area of 0.9 m×0.9 m, with 0.4 m high walls. The open-field arena was divided into a 6×6 grid of equally-sized squares using black tape (36 total squares) with 4 squares forming the centre; 12 squares forming the middle perimeter; and 20 squares forming the outer perimeter. The test started by placing a rat in the centre. The behavior of each rat in the open-field arena was recorded on video and scored afterwards by an observer blind to the experimental treatment of each rat. Time spent in each region of the open-field was recorded.
In experiments 4-6, rats were made panic vulnerable with 1-AG. […] In experiment 5, baseline in an open field (OF) behavior test of anxiety was assessed (n=8) prior to 1-AG infusions. […] In experiment 7, control rats (no 1-AG or NaLac treatment) were assessed in a SI test.
All adult male Sprague-Dawley rats were anesthetized and surgically implanted with telemetrical probes to measure cardiovascular activity prior to and during lactate infusions. After a 3 day recovery, baseline open field behavior was assessed (n=8), then rats were anaesthetized and had osmotic minipumps (previously filled with 1-AG) stereotaxically implanted unilaterally into the DMH. […] Immediately following the lactate challenge, the rats were assessed for anxiety using the open field test.

[3] = system: FG-7142 treated rats; assay: FG-7142-induced anxiety: open field, social interaction and elevated plus maze tests; assay type: in vivo, rat; conditions: Wistar rats
Protocol: All experiments were conducted on adult male Wistar rats (250-300 g) purchased from Harlan Laboratories (Indianapolis, Ind. USA) and were housed individually in plastic cages under standard environmental conditions (22° C.; 12/12 light/dark cycle; lights on at 7:00 A.M.) for 7-10 days prior to the surgical manipulations. Food and water were provided ad libitum.
as §1, with “90 cm×90 cm,” for “0.9 m×0.9 m,”, “40 cm” for “0.4 m”, “recorded. In addition, locomotor activity was assessed by counting the number of times the rat's entire body (excluding tail) completely crossed into another square.” for “recorded.”
Following the OFT, the experimental rat was placed in an open field (0.9 m long×0.9 m wide with walls 0.3 m high) with an untreated novel partner rat. A video camera was fixed above the box, and all behavioral tests were videotaped. During the 5 min test the total amount of time the treated rat initiates interaction with the partner rat is recorded (sniffing, grooming etc.) as described previously. Videotaped sessions were scored at a later time by a SDF (blind to treatments) and a decrease in total interaction time was taken as an increase in “anxiety” like behavior.
Following the SI test, rats were place in the center area of the EPM where the two arms intersect. Unlike the SI test, the EPM measures many relevant anxiety related behaviors such as: no. of poke and full entries into and duration spent in closed versus open arm. […] Activity is measured using […] state of the art photobeams (16× beams and 16 Y beams) to provide the highest resolution system available (Automated EPM, Hamilton Kinder Scientific, San diego, CA).

[4] = in vivo; cited from earlier work
[5] = 30 mg/kg i.p., experiment 5 (open field cohort)
[6] = i.p. 30 min prior to NaLac, SB334867/SB408124 30 mg/kg, alprazolam 3 mg/kg, experiments 4 and 6

SMILES: Cc1nc2ccc(NC(=O)Nc3ccnc4cccnc34)cc2o1 [SB334867, N-(2-Methyl-6-benzoxazolyl)-N′-1,5-naphthyridin-4-yl urea]
- NaLac induced increases in heart rate (HR) [1, 5]: attenuated
- NaLac induced increases in mean arterial blood pressure (MAP) [1, 5]: attenuated
- NaLac induced increases in heart rate (HR) [1, 6]: attenuated; also recorded: blocked
- NaLac induced increases in mean arterial blood pressure (MAP) [1, 6]: attenuated; also recorded: blocked
- anxiety-like responses (decreased time spent in center of open field) after NaLac challenge [2]: attenuated
- time in open arms of elevated plus maze ([3]; FG-7142 7.5 mg/kg ip, with or without SB334867 30 mg/kg ip): higher time in open arms
- FG-7142-induced anxiety behavior in the social interaction test ([3]; SB334867 30 mg/kg ip followed by FG-7142 7.5 mg/kg ip): blocked
- FG-7142 induced anxiety in the open field test ([3]; SB334867 30 mg/kg ip followed by FG-7142 7.5 mg/kg ip, 15 min after FG-7142): appeared to have attenuated
- blood-brain barrier passage [4]: crosses the blood-brain barrier

Reference: patent US8877773B2, “Methods for treating chronic obstructive pulmonary disease” (Indiana University Research and Technology Corporation, priority 2009, dated 2014)
